Tests used:
[1] = Physical and chemical properties: solubility in solvents; format: physicochemical
Source text: The chemical structure of the mangiferin-6-O-berberine salt is as follows: […]

[2] = Solubility in the hydrochloric acid solution of pH 1; format: physicochemical
Protocol: (§1) Sample A: Mangiferin-6-O-berberine salt dihydrate
(§2) Sample B: Mangiferin-berberine salt yielded using the method as disclosed in WO2010/145192A1.
2. Instrument: PHS-3C pH meter (Shanghai Kangyi)
Take pure water; add hydrochloric acid to adjust pH to 1 (25° C.±2° C.). Take the water 50 ml to different triangular flask; weigh up accurately 200 mg sample A and sample B which have been ground into powders and put them into the triangular flasks separately, shake and observe dissolved phenomena.
Take the water 50 ml to different triangular flasks; weigh up accurately sample A 400 mg and 600 mg which have been ground into powders and put the powders into the triangular flasks separately, shake and observe dissolving phenomena.

[3] = Pharmacokinetic comparison after single intragastric administration to SD rats; format: in vivo
Protocol: as §1
Sample B: Mangiferin-berberine salt yielded using the method disclosed in WO2010/145192A1.
A single intragastric administration of sample of A or B was given to SD rats at the dosage of 100 mg/kg and blood was sampled from jugular vein at 0, 0.083, 0.25, 0.5, 1, 1.5, 2, 3, 4, 5, 6, 7, 8, 12 and 24 h.
Preparation of the mangiferin reference solution: Mangiferin reference was weighed accurately and put into a 25 ml volumetric flask; methanol was added to make mangiferin dissolve, diluted to graduation. The mangiferin reference mother liquor is yielded for reserve. An appropriate amount of mangiferin reference mother liquor was taken out accurately and diluted to prepare the mangiferin reference solutions having a concentration of 2, 5, 10, 50, 100, 200 ng/ml.
Preparation of the berberine hydrochloride reference solution: The berberine hydrochloride reference was weighed accurately and put into a 25 ml volumetric flask; methanol was added to make the berberine hydrochloride dissolve, and dilute to graduation. The berberine hydrochloride reference mother liquor was yielded for reserve. An appropriate amount of berberine hydrochloride reference mother liquor was taken out accurately and diluted to prepare reference solution whose berberine concentration is 0.2, 0.5, 2, 10, 20, 50 ng/ml.
Preparation of the internal standard solution: Glibenclamide was weighed accurately and put into a 25 ml volumetric flask; acetonitrile was added to make glibenclamide dissolve, and dilute to graduation. The internal standard solution of glibenclamide was yielded, having a concentration of 50 ng/ml.
Blood sample processing method: Rat blood was put in a heparin anticoagulant centrifuge tube and centrifuged for 10 minutes at 6000 rpm, and the plasma was taken for reserve at −20° C. […]
The pharmacokinetic parameters are calculated with a non compartmental model in Pharsight Phoenix 6.3.

AMPK = assay: Activation of AMPK in L6 cells (Western blot of phospho-AMPK and phospho-ACC); format: cell-based, rat; conditions: 1.25-5 μmol/L, 3 hours, dose-dependent
Protocol: The mangiferin-6-O-berberine salt dihydrate yielded using the method as disclosed in the above examples dissolves in DMSO. Before use, the mangiferin-6-O-berberine salt dihydrate is diluted by a culture medium or HBS. The ultimate concentration of DMSO is no more than 0.2%.
The rat L6 cell line is purchased from the ATCC. HG-DMEM is purchased GIBCO™. Fetal bovine serum (FBS) is purchased from Hyclone. Anti-AMPK, anti-ACC, antiphospho-AMPK (Thr172), antiphospho-ACC (ser79) polyclonal antibodies are purchased from Cell Signal Technology.
L6 cells were grown in HG-DMEM containing 10% (v/v) FBS, 100 U/ml penicillin and 100 U/ml streptomycin in a humidified atmosphere of 5% CO2 at 37° C. When the cells covered 60%, the medium was switched to HG-DMEM with 2% FBS and the culture medium was replaced every two days until the cells differentiation reached 90%.
Cells in 6-well plates were starved in serum-free HG-DMEM, and then different concentration gradient samples were added into serum-free HG-DMEM; the concentration of DMSO is 0.2%. The samples incubated for 3 hours in the cells. […]
Samples were electrophoresed on 10% SDS-polyacrylamide gels, and transferred to […] membranes under 100V and 1-2 hours in the transmembrane instrument. Protein in the gel was transferred to nitrocellulose membrane under the state of half dry, and the band was determined by Ponceau S (Ponceau S). […]

[4] = Stability under a high-humidity environment (moisture absorption weight gain); format: physicochemical
Protocol: as §1, §2
2. Instrument: One ten-thousandth electronic balance (Sartorius, Germany)
Weigh up accurately appropriate amount sample A in 3 glass gardens and sample B in 3 glass gardens separately; put the samples in a drug stability chamber with the condition being set to: 25° C./90% RH±5% RH and storage for 10 days. Weigh the samples accurately on the fifth day and tenth day; record the results of weighing and calculate weight percentage of moisture absorption.

[5] = system: non-alcoholic fatty liver combined with type 2 diabetes mellitus; assay: Improvement of metabolic disorder indices in patients, oral tablets for six months; format: in vivo, human; conditions: after six months, tablets 75 mg two times per day oral
Protocol: The patients according to the criteria of diagnosing non-alcoholic fatty liver combined with type 2 diabetes mellitus oral administrated mangiferin-6-O-berberine salt tablets 75 mg (for the preparation method, reference may be made to Example 6) two times per day.

[6] = hydrochloric acid solution of pH 1
[7] = single intragastric 100 mg/kg, 0-24 h, n = 3, mean ± SD

## COc1ccc2cc3[n+](cc2c1OC)CCc1cc2c(cc1-3)OCO2.O=c1c2cc(O)c([O-])cc2oc2cc(O)c([C@@H]3O[C@H](CO)[C@@H](O)[C@H](O)[C@H]3O)c(O)c12 [Mangiferin-6-O-berberine salt]
[1]; dilute hydrochloric acid
  solubility in dilute hydrochloric acid: slightly soluble
[1]; methanol
  solubility in methanol: slightly soluble
[1]; water
  solubility in water: almost insoluble
[2]; [6]
  solubility relative to the mangiferin-berberine salt disclosed in WO2010/145192A1: three times
  stability (of the solution) compared with the mangiferin-berberine salt disclosed in WO2010/145192A1: much better
[2]; pH 1, 25° C.±2° C.
  solubility in the hydrochloric acid solution of pH 1: 12 mg/ml
[3]; oral administration 100 mg/kg
  AUC relative to that of the mangiferin-berberine salt: 2 times
[3]; [7]
  AUC0-t of Berberine in plasma: 669.72 ± 312.83 ng·h/mL
  AUC0-t of Mangiferin in plasma: 1831.11 ± 510.25 ng·h/mL
AMPK
  phosphorylation of ACC: enhances significantly
  phosphorylation of AMPK: enhances significantly
[4]
  weight percentage of moisture absorption (hygroscopicity) compared with the mangiferin-berberine salt disclosed in WO2010/145192A1: much smaller
[5]; n = 8, mean ± SD, base line 136.50
  ALT: 51.85 U/L
[5]; n = 8, base line 0.447
  APRI index: 0.203
[5]; n = 8, base line 0.60
  Urine microalbumin (1^+ is seen as 1): 0
[5]; n = 8, base line 3.56
  TG: 1.41 mmol/L
[5]; n = 8, base line 4.12
  Atherogenic index (AI): 3.10
[5]; n = 8, base line 7.18
  HbA1C: 5.80%
[5]; n = 8, base line 73.35
  Weight: 62.34 kg
[5]; n = 8, base line 83.32
  AST: 39.20 U/L
[5]; n = 8, base line 94.79
  Diastolic pressure: 76.39 mmHg
[5]; n = 8, base line 153.77
  Systolic pressure: 125.86 mmHg
[5]; n = 8, base line 197.99
  INS: 56.08 pmol/L
[5]; n = 8, base line fatty liver
  Liver color Doppler ultrasound: normal
[5]; n = 8, base line −7.12
  ISI: −5.80

From patent US10285969B2, “Mangiferin-6-O-berberine salt and preparation method and use thereof” (CHANGZHOU DEZE MEDICAL SCIENCE CO., LTD, priority 2015, dated 2019)
